Values after ≈ are worked out from the molar mass of the structure shown. Where two headings read alike, the source gives them in different places.
Tests used:
[1] = tested on: Hep-2C cells; experiment: MTT assay against Hep-2C cells; assay type: cell-based, Human; conditions: Homo sapiens, Hep2C, read-out: IC50 (Mean ± SEM) Hep-2C Cells
Procedure: Hep-2C cell line experiments were performed in the Immunology Lab of the National Institute of Health (NIH), Islamabad, Pakistan. Human cervix carcinoma cells Hep-2C (ATCC HB-8065) were cultured in Dulbecco’s modified Eagle’s medium (DMEM), comprising 10% fetal calf serum (10% FCS) and supplemented with 2 mM L-glutamine, 100 U/mL penicillin, 100 µg/mL streptomycin and 1 mM Na pyruvate, at 37 °C in a humidified 5% CO2 incubator.
The tetrazolium dye 3-(4, 5-dimethyl thiazolyl-2)-2, 5-diphenyltetrazolium bromide (MTT) was used to assess the cytotoxic potential of the test compounds. In living cells, MTT is reduced into its insoluble purple product formazan, which is measured spectrophotometrically.
Hep-2C cells, in a density of 1 × 10^6 (> 90% cell viability), were cultured in a 96-well plate and treated with different concentrations of the test compounds for 24, 48 and 72 h. Ten microliters of MTT (1 mg per mL) were added per well followed by incubation for 4 h. Insoluble formazan crystals were dissolved by adding 100 µL of DMSO. Cells were then incubated for another 2 h. Absorbance was measured at 570 nm by a microplate reader. Untreated Hep-2C cells were taken as controls and DMSO as a negative. % cell viability = (abssample − absblank)/(abscontrol − absblank) × 100

[2] = DPPH free radical scavenging assay; conditions: mean ± SEM, n = 3
Procedure, shortened: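 Compounds at 200, 66.6, 22.2 and 7.4 µg/mL were mixed with DPPH radical, with DMSO as the negative control. Absorbance was read at 630 nm, and % scavenging was calculated as (1 − Abs/Abc) × 100 against the control.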

[3] = tested on: NO generated by LPS-induced macrophages; experiment: Nitric oxide assay (Griess) in LPS-induced macrophages; assay type: cell-based, murine; conditions: Mus musculus, Macrophage, 18 h, LPS 1 µg/mL, read-out: % NO Production (Mean ± SEM)
Procedure, shortened: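 Murine macrophages (1 × 10^6/well) pre-treated 2 h with compound at 100, 50, 10 or 1 µM, then LPS 1 µg/mL for 18 h. Nitrite in medium measured with Griess reagent at 540 nm against a NaNO2 standard curve; piroxicam as positive control, t-test for significance.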

[4] = tested on: brine shrimp nauplii; experiment: Brine shrimp lethality bioassay; assay type: in vivo; conditions: 24 h, n = 3
Procedure, shortened: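 Ten hatched nauplii per well in artificial seawater were exposed to test compounds at 400, 200, 100 and 50 µg/mL under a lamp. Survivors counted after 24 h; percentage mortality calculated; triplicate.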

[5] = tested on: raw macrophages; experiment: MTT cytotoxicity against raw macrophages; assay type: cell-based, albino rats; conditions: mean ± SEM, n = 3
Procedure, shortened: (§1)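 Peritoneal macrophages from albino rats were treated for 24 h at 37 °C, 5% CO2 with test compounds at 100, 50, 10 and 1 µM or vehicle, from DMSO stocks. MTT was then added for 2 h, formazan dissolved in DMSO and absorbance read at 570 nm. % viability = blank-corrected sample over blank-corrected control ×100.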

[6] = MTT cytotoxicity against raw macrophages; assay type: cell-based, albino rats; conditions: albino, rat
Procedure, shortened: as §1

- IC50 (DPPH radical scavenging) ([2]; concentration to scavenge 50% of the DPPH radicals): 29.79 ± 0.26 mg/L (≈ 121 µM)
Structure (SMILES): CCCN(CCC)CN1CCCc2ccccc21 [SF4, N-((3,4-dihydroquinolin-1(2H)-yl), methyl)-N-propylpropan-1 amine]
- IC50 ([1]; 24 h): 23.9 ± 1.07 µM
- IC50 ([1]; 48 h): 21.2 ± 1.2 µM
- IC50 ([1]; 72 h): 15.5 ± 1.03 µM
- % DPPH Scavenging Activity ([2]; 7.4 µg/mL): 18.12 ± 0.20%
- % DPPH Scavenging Activity ([2]; 22.22 µg/mL): 41.63 ± 0.28%
- % DPPH Scavenging Activity ([2]; 66.66 µg/mL): 53.65 ± 0.14%
- % DPPH Scavenging Activity ([2]; 200 µg/mL): 58.58 ± 0.33%
- activity at 1 µM ([3]; 1 µM): 43.03 ± 0.41%
- activity at 10 µM ([3]; 10 µM): 39.17 ± 0.38%
- activity at 50 µM ([3]; 50 µM): 32.05 ± 0.31%
- activity at 100 µM ([3]; 100 µM): 20.2 ± 0.28%
- LD50 ± SEM (brine shrimp lethality) [4]: 100 ± 1.78 µg/mL
- IC50 [5]: 7.2 ± 0.05 µM
- viability at 24 h, 1 µM ([6]; peritoneal macrophages (raw macrophages), 1 µM, raw macrophages, 24 h, MTT, read-out: % Cell Viability): 79 ± 0.92%
- viability at 24 h, 10 µM ([6]; peritoneal macrophages (raw macrophages), 10 µM, raw macrophages, 24 h, MTT, read-out: % Cell Viability): 53 ± 0.63%
- viability at 24 h, 50 µM ([6]; peritoneal macrophages (raw macrophages), 50 µM, raw macrophages, 24 h, MTT, read-out: % Cell Viability): 42 ± 0.87%
- viability at 24 h, 100 µM ([6]; peritoneal macrophages (raw macrophages), 100 µM, raw macrophages, 24 h, MTT, read-out: % Cell Viability): 39 ± 0.88%
- IC50 at 24 h ([6]; primary peritoneal macrophages, mean ± SEM, n = 3): 7.208 ± 0.05 µM
